# Data taken from patent publication US9580487B2, “Method of treating stomach or bowel-related disorders by administering glucagon-like-peptide-2 (GLP-2) analogues” (Zealand Pharma A/S, priority 2005, dated 2017).
# “Also recorded” adds a separate entry of the source. No end group written: not given here.
# System: male C57BL mice
# Test: Screening for intestinal growth effects (small intestine and colon mass relative to body weight, small intestine-colon sensitivity index)
# Type: in vivo
# Conditions: 30 nmol/kg s.c. twice daily, ten days; relative to [Gly2]GLP-2
# Method: The ability of the present compounds to stimulate intestinal growth was determined in male C57BL mice. Individual groups (n=6) of mice were given 30 nmol/kg of each compound, s.c, twice daily for ten consecutive days. For comparison purposes other groups of animals were given either an equimolar dose of [Gly2]GLP-2 (SEQ ID NO:54) or vehicle (phosphate buffered saline, pH 7.4) in the same dosing regimen. Twenty-four hours after the last dose of compound had been given the mice were sacrificed and the small intestine (from the pylorus to the cecum) and the colon (intestine distal to cecum) was emptied and weighed. To correct for slight difference in body weight (BW), the organ mass of the small intestine (SI) and colon were expressed relative to BW. The non-selective reference compound [Gly2]GLP-2 (SEQ ID NO:54) has been reported to stimulate gastrointestinal growth in both esophagus, stomach, small intestine and colon and to evaluate differences in growth pattern induced by compounds, the small intestine-colon sensitivity index of compound X was calculated as:
# (SI/Colon)X/(SI/Colon)[Gly2]GLP-2%
# Compounds with a small intestine-colon sensitivity greater than or equal to 1.05 were considered relatively selective for the small intestine (Table 15).
# Compounds with a small intestine-colon sensitivity smaller than or equal to 0.95 were considered relatively selective for the colon (Table 15).
row,Substance,Preferential growth of small intestine versus colon (small intestine-colon sensitivity)
1,"[Gly2, Leu10, Ser11, Ala24]hGLP-2(1-30)-K6-NH2 [Compound 1819]",preferentially stimulating epithelial growth in the small intestine
2,"[Gly2, Leu10, Ser11, Ala24]hGLP-2(1-30)-NH2 (HGDGSFSDELSTILDNLAARDFIAWLIQTK-NH2) [Compound 1830]",preferentially stimulating epithelial growth in the colon
3,"[Gly2, Ser8, Leu10, Ala11,24]hGLP-2(1-30)-K6-NH2 [Compound 1818]",supplementary increase in the weight of the small intestine without significant effecting the weight of the colon; also recorded: preferentially stimulating epithelial growth in the small intestine
4,"[Gly2, Ser8, Leu10, Ala11,24]hGLP-2(1-30)-NH2 (HGDGSFSSELATILDNLAARDFIAWLIQTK-NH2) [Compound 1825]",without preferential growth in small intestine or colon
5,"[Gly2, Thr7, Leu10, Lys11, Ala24]hGLP-2(1-30)-K6-NH2 [Compound 1822]",without preferential growth in small intestine or colon
6,"[Gly2, Thr7, Leu10, Lys11, Ala24]hGLP-2(1-30)-NH2 (HGDGSFTDELKTILDNLAARDFIAWLIQTK-NH2) [Compound 1836]",preferentially stimulating epithelial growth in the colon
7,"[Gly2, Thr7, Leu10, Ser8,11, Ala24]hGLP-2(1-30)-K6-NH2 [Compound 1828]",without preferential growth in small intestine or colon
8,"[Gly2, Thr7, Leu10, Ser8,11, Ala24]hGLP-2(1-30)-NH2 (HGDGSFTSELSTILDNLAARDFIAWLIQTK-NH2) [Compound 1832]",without preferential growth in small intestine or colon
9,"[Gly2, Thr7, Leu10, Ser11, Ala24]hGLP-2(1-30)-K6-NH2 [Compound 1827]",preferentially stimulating epithelial growth in the small intestine
10,"[Gly2, Thr7, Leu10, Ser11, Ala24]hGLP-2(1-30)-NH2 (HGDGSFTDELSTILDNLAARDFIAWLIQTK-NH2) [Compound 1831]",preferentially stimulating epithelial growth in the colon
11,"[Gly2, Thr7, Ser8, Leu10, Lys11, Ala24]hGLP-2(1-30)-K6-NH2 [Compound 1823]",without preferential growth in small intestine or colon
12,"[Leu10, Ala11, Ala24]hGLP-2 (1-30)-NH2 [Compound 1841]",preferentially stimulating epithelial growth in the colon
13,"[Leu10, Ala11, Ala24]hGLP-2 (1-33)-K6-NH2 [Compound 1839]",preferentially stimulating epithelial growth in the colon
14,"[Leu10, Ala11, Ala24]hGLP-2 (1-33)-NH2 [Compound 1840]",preferentially stimulating epithelial growth in the colon

# Same assay, conditions: male C57BL mice, 30 nmol/kg s.c. twice daily for ten days
row,Substance,"colon mass relative to body weight, % [Gly2]GLP-2"
1,"[Gly2, Leu10, Ser11, Ala24]hGLP-2(1-30)-NH2 (HGDGSFSDELSTILDNLAARDFIAWLIQTK-NH2) [Compound 1830]",106 % [Gly2]GLP-2
2,"[Gly2, Thr7, Leu10, Lys11, Ala24]hGLP-2(1-30)-NH2 (HGDGSFTDELKTILDNLAARDFIAWLIQTK-NH2) [Compound 1836]",105 % [Gly2]GLP-2
3,"[Gly2, Thr7, Leu10, Ser11, Ala24]hGLP-2(1-30)-NH2 (HGDGSFTDELSTILDNLAARDFIAWLIQTK-NH2) [Compound 1831]",102 % [Gly2]GLP-2
4,"[Leu10, Ala11, Ala24]hGLP-2 (1-30)-NH2 [Compound 1841]",126 % [Gly2]GLP-2
5,"[Leu10, Ala11, Ala24]hGLP-2 (1-33)-K6-NH2 [Compound 1839]",133 % [Gly2]GLP-2
6,"[Leu10, Ala11, Ala24]hGLP-2 (1-33)-NH2 [Compound 1840]",131 % [Gly2]GLP-2

# Same assay, conditions: male C57BL mice, 30 nmol/kg s.c. twice daily for ten days; third value column
row,Substance,"small intestine-colon sensitivity index, (SI/Colon)X/(SI/Colon)[Gly2]GLP-2 %"
1,"[Gly2, Leu10, Ser11, Ala24]hGLP-2(1-30)-NH2 (HGDGSFSDELSTILDNLAARDFIAWLIQTK-NH2) [Compound 1830]",94 % [Gly2]GLP-2
2,"[Gly2, Thr7, Leu10, Lys11, Ala24]hGLP-2(1-30)-NH2 (HGDGSFTDELKTILDNLAARDFIAWLIQTK-NH2) [Compound 1836]",90 % [Gly2]GLP-2
3,"[Gly2, Thr7, Leu10, Ser11, Ala24]hGLP-2(1-30)-NH2 (HGDGSFTDELSTILDNLAARDFIAWLIQTK-NH2) [Compound 1831]",88 % [Gly2]GLP-2
4,"[Leu10, Ala11, Ala24]hGLP-2 (1-30)-NH2 [Compound 1841]",90 % [Gly2]GLP-2
5,"[Leu10, Ala11, Ala24]hGLP-2 (1-33)-K6-NH2 [Compound 1839]",84 % [Gly2]GLP-2
6,"[Leu10, Ala11, Ala24]hGLP-2 (1-33)-NH2 [Compound 1840]",86 % [Gly2]GLP-2
